Tested on: tumor that expresses high levels of CXCL12
Experiment: Tumor growth in mice bearing a subcutaneous CXCL12-expressing tumor

In the case of `c1cc(CN2CCCNCCNCCCNCC2)ccc1CN1CCCNCCNCCCNCC1` [AMD3100], the “Delay in tumor growth, co-treatment versus TAX alone” value (AMD3100 subcutaneous once a day for 5 days, then 12.5 mg/kg TAX intraperitoneal one to three days after the final dose) is reported as “synergistic effect”.
For `CC(=O)O[C@H]1C(=O)[C@@]2(C)[C@H]([C@H](OC(=O)c3ccccc3)[C@]3(O)C[C@H](OC(=O)[C@H](O)[C@@H](NC(=O)c4ccccc4)c4ccccc4)C(C)=C1C3(C)C)[C@]1(OC(C)=O)CO[C@@H]1C[C@@H]2O` [TAX, paclitaxel], the Tumor growth (12.5 mg/kg paclitaxel (TAX) intraperitoneal, 18 hours prior to assay, mice not administered AMD3100) was “delayed by TAX treatment, but resumes soon after the treatment is discontinued”.

— US11305017B2, “Anti-fugetactic agent and anti-cancer agent combination therapy and compositions for the treatment of cancer” (The General Hospital Corporation, priority 2015, dated 2022)
